Values joined by “and” are separate entries in the source; they are usually repeats but may differ in a detail not shown here. Identical values can stand only once.
What was measured:
His-tagged BCL-xL = molecular target: T1, His-tagged BCL-xL (Homo sapiens, UniProt Q07817); experiment: AlphaScreen competitive binary binding, BCL-xL (biotin-BAD peptide)
T1 construct: purchased Sigma-Aldrich SRP0187
Protocol: (§1) The reagents were diluted in a buffer containing 250 mM HEPES pH 7.5, 1 M NaCl, 1% BSA, and 0.05% Tween-80. His-tagged BCL-xL (0.5 nM, Cat. No. SRP0187, Sigma-Aldrich) or BCL-2 (1 nM, Cat. No. SRP0186, Sigma-Aldrich) were incubated with serial diluted 753a or 753b and 2 nM biotin-tagged BAD (biotin-[…] amino-terminal, AnaSpec, for BCL-xL) or 10 nM BIM peptides (biotin-[…] N-terminal, AnaSpec, for BCL-2) to a final volume of 40 µl in a 96-well PCR plate. […] After incubation for 2 h, 5 µl 6× His-acceptor beads (Cat. No. AL128M, PerkinElmer) were added to each well at 20 µg/ml final concentration and incubated for 1 h. Then 5 µl streptavidin-donor beads were added (Cat. No. 6760002, PerkinElmer) to each well at 20 µg/ml final concentration and incubated for 45 min. At the end of the incubation period, 17 µl of each sample was transferred in adjacent wells of 384-well proxy plate (Cat. No. 6008280, PerkinElmer). The plate was scanned using the Alpha program on Biotek’s Synergy Neo2 multimode plate reader. The inhibition constant (Ki) was calculated using the non-linear regression, one site, competitive binding, Fit Ki function on GraphPad Prism 9 software, based on experimentally determined dissociation constant (Kd) for each protein–peptide pair.

His-tagged BCL-2 = molecular target: T2, His-tagged BCL-2 (Homo sapiens, UniProt P10415); experiment: AlphaScreen competitive binary binding, BCL-2 (biotin-BIM peptide)
T2 construct: purchased Sigma-Aldrich SRP0186
T2 sequence (P10415 whole entry): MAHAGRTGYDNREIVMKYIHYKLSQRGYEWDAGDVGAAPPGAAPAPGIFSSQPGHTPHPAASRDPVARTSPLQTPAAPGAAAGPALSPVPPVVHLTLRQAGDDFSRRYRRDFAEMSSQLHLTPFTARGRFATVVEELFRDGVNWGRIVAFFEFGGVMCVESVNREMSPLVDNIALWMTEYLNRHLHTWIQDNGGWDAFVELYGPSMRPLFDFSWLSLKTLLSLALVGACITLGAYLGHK
Protocol: as §1

[1] = AlphaScreen, Supplementary Fig. 6

T1 sequence (Q07817 whole entry): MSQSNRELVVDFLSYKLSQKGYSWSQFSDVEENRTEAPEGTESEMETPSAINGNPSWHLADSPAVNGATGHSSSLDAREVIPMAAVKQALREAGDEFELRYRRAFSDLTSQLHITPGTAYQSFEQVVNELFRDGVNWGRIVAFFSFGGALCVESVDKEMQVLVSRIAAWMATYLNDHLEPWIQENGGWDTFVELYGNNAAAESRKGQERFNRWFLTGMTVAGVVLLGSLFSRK

IC50 (His-tagged BCL-xL; BCL-xL Rep-1): 39 nM | Ki (His-tagged BCL-xL; BCL-xL Rep-1): 1.75 nM | Alpha signal (raw counts) (His-tagged BCL-xL; BCL-xL Rep-1, plate row B, 5 uM): 27085 and 24738 | Alpha signal (raw counts) (His-tagged BCL-xL; BCL-xL Rep-1, plate row C, 1.25 uM): 28062 and 40230 | Alpha signal (raw counts) (His-tagged BCL-xL; BCL-xL Rep-1, plate row D, 0.3125 uM): 145116 and 115021 | Alpha signal (raw counts) (His-tagged BCL-xL; BCL-xL Rep-1, plate row E, 0.078125 uM): 433630 and 441172 | Alpha signal (raw counts) (His-tagged BCL-xL; BCL-xL Rep-1, plate row F, 0.0195312 uM): 726417 and 752069 | Alpha signal (raw counts) (His-tagged BCL-xL; BCL-xL Rep-1, plate row G, 0.00488281 uM): 950071 and 945138 | Alpha signal (raw counts) (His-tagged BCL-xL; BCL-xL Rep-1, plate row H, 0.0012207 uM): 1050463 and 1074380 | Alpha signal (raw counts) (His-tagged BCL-xL; BCL-xL Rep-1, plate row I, 0.000305176 uM): 1307721 and 1309993 | Alpha signal (raw counts) (His-tagged BCL-xL; BCL-xL Rep-1, plate row J, 7.62939e-5 uM): 1113170 and 1173569 | Alpha signal (raw counts) (His-tagged BCL-xL; BCL-xL Rep-1, plate row K, 1.90735e-5 uM): 1107772 and 1259986 | Alpha signal (raw counts) (His-tagged BCL-xL; BCL-xL Rep-2, 7.62939e-5 uM): 1188088 and 1161046 | Alpha signal (raw counts) (His-tagged BCL-xL; BCL-xL Rep-2, plate row B, 5 uM): 24343 and 23695 | Alpha signal (raw counts) (His-tagged BCL-xL; BCL-xL Rep-2, plate row C, 1.25 uM): 25479 and 38889 | Alpha signal (raw counts) (His-tagged BCL-xL; BCL-xL Rep-2, plate row D, 0.3125 uM): 95317 and 147841 | Alpha signal (raw counts) (His-tagged BCL-xL; BCL-xL Rep-2, plate row E, 0.078125 uM): 336804 and 343845 | Alpha signal (raw counts) (His-tagged BCL-xL; BCL-xL Rep-2, plate row F, 0.0195312 uM): 767361 and 853215 | Alpha signal (raw counts) (His-tagged BCL-xL; BCL-xL Rep-2, plate row G, 0.00488281 uM): 937707 and 1041403 | Alpha signal (raw counts) (His-tagged BCL-xL; BCL-xL Rep-2, plate row H, 0.0012207 uM): 1127054 and 1147040 | Alpha signal (raw counts) (His-tagged BCL-xL; BCL-xL Rep-2, plate row I, 0.000305176 uM): 1272095 and 1259132 | Alpha signal (raw counts) (His-tagged BCL-xL; BCL-xL Rep-2, plate row K, 1.90735e-5 uM): 1255062 and 1549086 | Ki (His-tagged BCL-xL; BCL-xL, mean of the two replicate values (line without label)): 1.52 nM | Ki (His-tagged BCL-xL; BCL-xL, second value (line without label below Rep-1, apparently Rep-2)): 1.29 nM | Alpha signal (raw counts) (His-tagged BCL-2; BCL-2 Rep-2, 0.00488281 uM): 457099 and 452255 | Alpha signal (raw counts) (His-tagged BCL-2; BCL-2 Rep-2, plate row C, 1.25 uM): 11131 and 19293 | Alpha signal (raw counts) (His-tagged BCL-2; BCL-2 Rep-2, plate row D, 0.3125 uM): 23398 and 21436 | Alpha signal (raw counts) (His-tagged BCL-2; BCL-2 Rep-2, plate row E, 0.078125 uM): 28167 and 26661 | Alpha signal (raw counts) (His-tagged BCL-2; BCL-2 Rep-2, plate row F, 0.0195312 uM): 165828 and 146355 | Alpha signal (raw counts) (His-tagged BCL-2; BCL-2 Rep-2, plate row H, 0.0012207 uM): 607122 and 550701 | Alpha signal (raw counts) (His-tagged BCL-2; BCL-2 Rep-2, plate row I, 0.000305176 uM): 723572 and 761986 | Alpha signal (raw counts) (His-tagged BCL-2; BCL-2 Rep-2, plate row J, 7.62939e-5 uM): 723255 and 767572 | Alpha signal (raw counts) (His-tagged BCL-2; BCL-2 Rep-2, plate row K, 1.90735e-5 uM): 723831 and 708342
SMILES: Cc1ncsc1-c1ccc([C@H](C)NC(=O)[C@@H]2C[C@@H](O)CN2C(=O)[C@@H](NC(=O)CCCCCCC(=O)N2CCN(C[C@@]3(C)CCC(c4ccc(Cl)cc4)=C(CN4CCN(c5ccc(C(=O)NS(=O)(=O)c6ccc(N[C@H](CCN7CCOCC7)CSc7ccccc7)c(S(=O)(=O)C(F)(F)F)c6)cc5)CC4)C3)CC2)C(C)(C)C)cc1 [753a]
binary binding affinity to BCL-xL (in words) (His-tagged BCL-xL; [1]): much weaker than that of the warhead ABT263 | binary binding affinity to BCL-2 (in words) (His-tagged BCL-2; [1]): much weaker than that of the warhead ABT263
